In data set [1] the test system is artificial enzyme cascade. The data set is described as follows: Solvent tolerance of the artificial enzyme cascade (glucose to ethanol with increasing isobutanol). The data set is classed as biochemical. How it is done:
A key characteristic of cell-free systems is their pronounced tolerance against higher alcohols.
All reactions were set up in 20 ml GC vials. Reaction mixtures contained 100 mM HEPES (pH 7 at 50° C.), 0.1 mM thiamine-pyrophosphate, 2.5 mM MgCl2, 25 mM D-glucose and 5 mM NAD. […] Reaction mixtures were placed in a water bath at 50° C. and gently stirred at 100 rpm.

For the next data set, the system named is E. coli. As to conditions: recombinant fermentative production in E. coli; cited from earlier work.
The subject of another data set is microbial cells. As to conditions: cited from earlier work.
The conditions of data set [2]: 20° C.; cited from earlier work.

Regarding `CC(C)CO` [isobutanol], the “ethanol produced in the presence of 6% (v/v) isobutanol” value in data set [1] (6% (v/v) isobutanol, in 8 h) was 1.4 mM. Besides, the “isobutanol concentration up to which cell-free ethanol productivity and reaction kinetics were not significantly affected” value in data set [1] (glucose to ethanol as in Example 1, 50° C.) is recorded as “up to 4 % (v/v)”. Besides, the “isobutanol titers that induce toxic effects in the microbial production host” value in the data set on E. coli is given as 1-2 % (v/v). Besides, the “isobutanol concentration that results in loss of productivity of microbial cells” value with microbial cells is “ca. 1 % v/v”. Besides, the “restricted miscibility in water” value in data set [2] was 9-10%.

As to `CCC(C)O` (stereo not shown) [2-Butanol], in data set [2], the “restricted miscibility in water” value is “about 12%”.

With `CCCCO` [n-Butanol], in data set [2], the “restricted miscibility in water” value was 7-8%.
